system: HBV viral load production from HepAD38 cells; assay: Viral production from HepAD38 cells: viral load in supernatant by qPCR of the HBV core sequence; format: cell-based; details: 5 days incubation, qPCR of supernatant HBV DNA vs DMSO control, read-out: viral load lowering EC50 (Activity)
Summary of the method: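 HepAD38 cells seeded at 50,000/well in tetracycline-free medium with 2% FBS, treated with compounds (final top concentration 10 μM) for 5 days at 37 °C. Supernatant HBV DNA quantified by TaqMan qPCR of core sequence against HBV DNA standards, relative to DMSO controls; EC50 by four-parameter logistic fit.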

Q: How did the EC50 turn out when `Cc1c(CNC(=O)C2CC(C(=O)Nc3ccc(F)c(Cl)c3)N(C)S(=O)(=O)N2)nnn1-c1ccccc1` (single isomer, unassigned; isomer-b) [1148-ISOMER-B, N3-(3-chloro-4-fluoro-phenyl)-2-methyl-N5-[(5-methyl-1-phenyl-triazol-4-yl)methyl]-1,1-dioxo-1,2,6-thiadiazinane-3,5-dicarboxamide] was run?
A: 100 to 10000 nM

Q: Which EC50 does the source give for `Cc1nc(-c2ccc(F)cc2)sc1CNC(=O)C1CC(C(=O)Nc2ccc(F)c(Cl)c2)N(C)S(=O)(=O)N1` (single isomer, unassigned) [1056-ISOMER-B, N3-(3-chloro-4-fluoro-phenyl)-N5-[[2-(4-fluorophenyl)-4-methyl-thiazol-5-yl]methyl]-2-methyl-1,1-dioxo-1,2,6-thiadiazinane-3,5-dicarboxamide] here?
A: < 50 nM

Q: How did the EC50 turn out when `CN1C(C(=O)Nc2ccc(F)c(Cl)c2)CC(C(=O)NCc2sc(-c3ccccc3F)nc2C(F)(F)F)NS1(=O)=O` (single isomer, unassigned) [1082-ISOMER-B, N3-(3-chloro-4-fluoro-phenyl)-N5-[[2-(2-fluorophenyl)-4-(trifluoromethyl)thiazol-5-yl]methyl]-2-methyl-1,1-dioxo-1,2,6-thiadiazinane-3,5-dicarboxamide] was run?
A: 50 to 100 nM

Q: With `CN1C(C(=O)Nc2ccc(F)c(Cl)c2)CC(C(=O)NC2CCN(C(=O)OC(C)(C)C)CC2)NS1(=O)=O` (single isomer, unassigned) [Compound 767-ISOMER-B, tert-butyl 4-[[5-[(3-chloro-4-fluoro-phenyl)carbamoyl]-6-methyl-1,1-dioxo-1,2,6-thiadiazinane-3-carbonyl]amino]piperidine-1-carboxylate] as the compound, how does the EC50 read?
A: 100 to 10000 nM

Q: Which EC50 does the source give for `CN1C(C(=O)Nc2ccc(F)c(Cl)c2)CC(C(=O)NCc2cnc(-c3ccc(O)cc3)s2)NS1(=O)=O` (single isomer, unassigned; isomer-a) [Compound 924-ISOMER-A, N3-(3-chloro-4-fluroo-phenyl)-N5-[[2-(4-hydroxyphenyl)thiazol-5-yl]methyl]-2-methyl-1,1-dioxo-1,2,6-thiadiazinane-3,5-dicarboxamide] here?
A: 100 to 10000 nM

Q: `CN1C(C(=O)Nc2ccc(F)c(Cl)c2)CC(C(=O)NCc2cc(-c3ccccc3Cl)no2)NS1(=O)=O` (single isomer, unassigned; isomer-b) [1025-ISOMER-B, N3-(3-chloro-4-fluoro-phenyl)-N5-[[3-(2-chlorophenyl)isoxazol-5-yl]methyl]-2-methyl-1,1-dioxo-1,2,6-thiadicarboxamidediazinane-3,5-] was tested. Which EC50 did it give?
A: 100 to 10000 nM

Q: For `CN1C(C(=O)Nc2ccc(F)c(Cl)c2)CC(C(=O)NCc2cnc(Cl)s2)NS1(=O)=O` (single isomer, unassigned) [1199-ISOMER-B, N3-(3-chloro-4-fluoro-phenyl)-N5-[(2-chlorothiazol-5-yl)methyl]-2-methyl-1,1-dioxo-1,2,6-thiadiazinane-3,5-dicarboxamide], which EC50 is on record?
A: 100 to 10000 nM

same assay, conditions: Hepatitis B virus, HePAD38, 120 h, 5 days incubation, qPCR of supernatant HBV DNA vs DMSO control, read-out: viral load lowering EC50 (Activity)

Q: Which EC50 does the source give for `COc1ccc(-c2cnc(CNC(=O)C3CC(C(=O)Nc4ccc(F)c(Cl)c4)N(C)S(=O)(=O)N3)s2)cc1` (single isomer, unassigned) [Compound 932-ISOMER-A, N3-(3-chloro-4-fluoro-phenyl)-N5-[[5-(4-methoxyphenyl)thiazol-2-yl]methyl]-2-methyl-1,1-dioxo-1,2,6-thiadiazinane-3,5-dicarboxamide] here?
A: 100 to 10000 nM

Q: How did the EC50 turn out when `CN1C(C(=O)Nc2ccc(F)c(Cl)c2)CC(C(=O)NC2CCN(Cc3cccnc3Br)CC2)NS1(=O)=O` (stereo not shown) [Compound 1033] was run?
A: 100 to 10000 nM

Q: Which EC50 does the source give for `Cc1cc(CNC(=O)C2CC(C(=O)Nc3ccc(F)c(Cl)c3)N(C)S(=O)(=O)N2)n(C)n1` (single isomer, unassigned) [Compound 482-ISOMER-A, N3-(3-chloro-4-fluoro-phenyl)-N5-[(2,5-dimethylpyrazol-3-yl)methyl]-2-methyl-1,1-dioxo-1,2,6-thiadiazinane-3,5-dicarboxamide] here?
A: < 50 nM

Q: `Cc1ncc(CNC(=O)C2CC(C(=O)Nc3ccc(F)c(Cl)c3)N(CC(F)(F)F)S(=O)(=O)N2)s1` (stereo not shown) [Compound 891] was tested. Which EC50 did it give?
A: 100 to 10000 nM

Q: How did the EC50 turn out when `CN1C(C(=O)Nc2ccc(F)c(Cl)c2)CC(C(=O)NCc2nn(-c3ccccc3)c3ccccc23)NS1(=O)=O` (stereo not shown) [Compound 1072] was run?
A: < 50 nM

Q: `CN1C(C(=O)Nc2ccc(F)c(Cl)c2)CC(C(=O)NCc2ccccc2-n2cccn2)NS1(=O)=O` (stereo not shown) [Compound 909] was tested. Which EC50 did it give?
A: < 50 nM

Q: For `Cc1nc(-c2ccccc2Cl)sc1[C@H](NC(=O)C1CC(C(=O)Nc2ccc(F)c(Cl)c2)N(C)S(=O)(=O)N1)c1ccccc1` (single isomer, unassigned) [1100-ISOMER-A], which EC50 is on record?
A: < 50 nM

Q: With `Cc1cn(-c2ccc(F)cc2)nc1CNC(=O)C1CC(C(=O)Nc2ccc(F)c(Cl)c2)N(C)S(=O)(=O)N1` (stereo not shown) [Compound 1141] as the compound, how does the EC50 read?
A: < 50 nM

Q: How did the EC50 turn out when `CN1C(C(=O)Nc2ccc(F)c(Cl)c2)CC(C(=O)NCc2cnc(-c3cccc(Cl)c3)s2)NS1(=O)=O` (single isomer, unassigned) [Compound 913-ISOMER-A, N3-(3-chloro-4-fluoro-phenyl)-N5-[[2-(3-chlorophenyl)thiazol-5-yl]methyl]-2-methyl-1,1-dioxo-1,2,6-thiadiazinane-3,5-dicarboxamide] was run?
A: 100 to 10000 nM

Q: `Cc1cnc(CNC(=O)C2CC(C(=O)Nc3ccc(F)c(Cl)c3)N(C)S(=O)(=O)N2)s1` (single isomer, unassigned) [Compound 687-ISOMER-A, N3-(3-chloro-4-fluoro-phenyl)-2-methyl-N5-[(5-methylthiazol-2-yl)methyl]-1,1-dioxo-1,2,6-thiadiazinane-3,5-dicarboxamide] was tested. Which EC50 did it give?
A: 100 to 10000 nM

Q: With `CN1C(C(=O)Nc2ccc(F)c(Cl)c2)CC(C(=O)NC2CCN(c3ncccn3)CC2)NS1(=O)=O` (single isomer, unassigned) [Compound 855-ISOMER-A, N3-(3-chloro-4-fluoro-phenyl)-2-methyl-1,1-dioxo-N5-(1-pyrimidin-2-yl-4-piperidyl)-1,2,6-thiadiazinane-3,5-dicarboxamide] as the compound, how does the EC50 read?
A: < 50 nM

Q: How did the EC50 turn out when `C[C@@H](NC(=O)C1CC(C(=O)Nc2ccc(F)c(Cl)c2)N(C)S(=O)(=O)N1)c1ccc(C(F)(F)F)cc1` (single isomer, unassigned) [493-R-ISOMER-B] was run?
A: 100 to 10000 nM

Q: Which EC50 does the source give for `CN1C(C(=O)Nc2ccc(F)c(Cl)c2)CC(C(=O)NCCC2CCCO2)NS1(=O)=O` (stereo not shown) [Compound 1161] here?
A: 100 to 10000 nM

Q: How did the EC50 turn out when `Cc1cn(-c2ccc(F)cc2)nc1CNC(=O)C1CC(C(=O)Nc2ccc(F)c(Cl)c2)N(C)S(=O)(=O)N1` (single isomer, unassigned) [1141-ISOMER-A, N3-(3-chloro-4-fluoro-phenyl)-N5-[[1-(4-fluorophenyl)-4-methyl-pyrazol-3-yl]methyl]-2-methyl-1,1-dioxo-1,2,6-thiadiazinane-3,5-dicarboxamide] was run?
A: < 50 nM

Q: Which EC50 does the source give for `CN1C(C(=O)Nc2ccc(F)c(Cl)c2)CC(C(=O)NCc2cnc(-c3ccc(C#CCCO)cc3)s2)NS1(=O)=O` (stereo not shown) [Compound 926] here?
A: < 50 nM

Q: With `Cc1cn(-c2ccc(F)cc2F)nc1CNC(=O)C1CC(C(=O)Nc2ccc(F)c(Cl)c2)N(C)S(=O)(=O)N1` (stereo not shown) [Compound 1144] as the compound, how does the EC50 read?
A: < 50 nM

Q: `CN1C(C(=O)Nc2ccc(F)c(Cl)c2)CC(C(=O)Nc2ccc3c(c2)OCCO3)NS1(=O)=O` (stereo not shown) [Compound 734] was tested. Which EC50 did it give?
A: 50 to 100 nM

Q: How did the EC50 turn out when `CN1C(C(=O)Nc2ccc(F)c(Cl)c2)CC(C(=O)N[C@H](c2ccccc2)c2cnc(Cl)s2)NS1(=O)=O` (single isomer, unassigned) [1066-ISOMER-A] was run?
A: 100 to 10000 nM

Source: patent US20230075856A1, “CYCLIC SULFAMIDE COMPOUNDS FOR TREATMENT OF HBV” (Assembly Biosciences, Inc., priority 2018, published 2023)
